Results published in patent US20190209509A1, “Hepatoprotective potential of Calebin A” (priority 2018, published 2019).

Legend:
HepG2 cells [1] = experiment: Protection from alcohol induced toxicity, Sulphorhodamine B assay; format: cell-based, Human; conditions: alcohol 1000 mM, 72 hours
Description: (§1) Human HepG2 cells (procured from NCCS, Pune) were cultured in Dulbecco's Modified Eagle Medium (DMEM) supplemented with 10% fetal bovine serum (FBS), 40 μgml^−1 gentamycin at 37° C. in an atmosphere of 5% CO2. When the cells reached 80-90% confluence, they were trypsinized and plated at 5000 cells per well in a 96-well microplate. After 24 hours of seeding, alcohol at a concentration of 1000 mM was added along with different non cytotoxic concentrations of Calebin. Sulphorhodamine B assay was performed after 72 hours of treatment to determine the number of viable cells and percentage protection was calculated (FIG. 1).

HepG2 cells [2] = experiment: Protection from acetaminophen (paracetamol) induced toxicity, Sulphorhodamine B assay; format: cell-based, Human; conditions: 6.25 μM, acetaminophen 4 mM, 72 hours
Description: as §1, with “acetaminophen” for “alcohol”, “4” for “1000”, “2).” for “1).”

[3] = test system: C2C12 myotubes (muscle cells); experiment: Glucose uptake assay (2-NBDG, flow cytometry) in muscle cells; format: cell-based; conditions: concentration printed as 3004, versus Metformin 200 μM
Description: The skeletal muscle cell line C2C12 myoblasts (procured from ATCC) were maintained in DMEM supplemented with 10% Fetal Bovine Serum at 37° C. with 5% CO2. Twenty thousand cells per well were seeded in a 24 well plate. When the cells reached 80-90% confluence, differentiation was induced by replacing the growth medium with DMEM containing 1% horse serum. Experiments were performed in completely differentiated C2C12 myotubes after 4-5 days in differentiation medium. Cells were then treated with 0.5% BSA in low glucose media for 16 hours and washed with cold Krebs-Ringer phosphate buffer without glucose. Cells were then treated with different non cytotoxic concentrations of samples in low glucose DMEM media with or without insulin at a concentration of 0.1 μM for 30 minutes at 37° C. Cells were then washed with cold PBS and stained with 5 μM of a fluorescent D-glucose analog 2-[N-(7-nitrobenz-2-oxa-1,3-diazol-4-yl) amino]-2-deoxy-D-glucose (2-NBDG) for 15 minutes in dark followed by flow cytometric detection of fluorescence produced by the cells (FIG. 3)

adipocytes = experiment: Glucose uptake assay in adipocytes; format: cell-based; conditions: concentration printed as 3004, versus Metformin 200 μM

## COc1cc(/C=C/C(=O)COC(=O)/C=C/c2ccc(O)c(OC)c2)ccc1O [Calebin A]
HepG2 cells [1]; 6.25 μM
  percentage protection from alcohol induced toxicity: about 14%
HepG2 cells [1]; 12.5 μM
  percentage protection from alcohol induced toxicity: 30%
HepG2 cells [1]; progressively higher concentration, printed 6.25 μM
  percentage protection from alcohol induced toxicity: 23%
HepG2 cells [2]
  percentage protection against acetaminophen induced toxicity: about 15%
[3]
  increase in glucose uptake: almost as effective as Metformin
adipocytes
  increase in glucose uptake: almost as effective as Metformin
